Test results from ChEMBL document CHEMBL5500331, “Discovery of novel peptide-dehydroepiandrosterone hybrids inducing endoplasmic reticulum stress with effective in vitro and in vivo anti-melanoma activities” (Eur J Med Chem, 2024).
pIC50: −log10 of the molar value. Active and inactive are the calls of the source. The rule behind the calls is not given here.

Legend:
B16 [1] = test: Induction of endoplasmic reticulum (ER) stress in mouse B16 cells assessed as fragmented distribution at 25 uM measured after 24 hrs by confocal microscopy based analysis; assay type: functional, cell-based
[2] = Inhibition of cell migration in mouse B16 cells at 9.70 uM measured after 48 hrs by scratch-wound healing assay relative to control; assay type: functional
B16 [3] = test: Induction of endoplasmic reticulum (ER) stress in mouse B16 cells assessed as appearance of vacuolated ER at 9.70 uM measured after 24 hrs by confocal microscopy based analysis; assay type: functional, cell-based; settings: dose 9.7 µM
[4] = Toxicity in Kunming mouse assessed as effect on body weight at 80 mg/kg, IG measured after 21 days; assay type: organism-based; settings: in vivo, po, 504 h, time 21 day
B16 [5] = test: Anti-melanoma activity against mouse B16 cells xenografted in Kunming mouse model assessed as suppression of tumor weight at 80 mg/kg, IG measured every two days for 27 days (reference value: 10.61+/-1.05g); assay type: functional; settings: time 27 day
B16 [6] = test: Anti-melanoma activity against mouse B16 cells xenografted in Kunming mouse model assessed as suppression of tumor weight at 40 mg/kg, IG measured every two days for 27 days (reference value: 10.61+/-1.05g); assay type: functional; settings: time 27 day
B16 [7] = test: Anti-melanoma activity against mouse B16 cells xenografted in Kunming mouse model assessed as increase in caspase 3 expression at 40 to 60 mg/kg, IG measured after 27 days by IHC staining based analysis; assay type: functional, organism-based; settings: dose 40-60 mg/kg, time 27.0 day
B16 [8] = test: Anti-melanoma activity against mouse B16 cells xenografted in Kunming mouse model assessed as decrease in bcl-2 level at 40 to 60 mg/kg, IG measured after 27 days by IHC staining based analysis; assay type: functional, organism-based; settings: dose 40-60 mg/kg, time 27.0 day
B16 [9] = test: Induction of endoplasmic reticulum (ER) stress in mouse B16 cells assessed as increase in CHOP expression at 9.70 uM measured after 48 hrs by Western blot analysis; assay type: functional, cell-based; settings: dose 9.7 µM
B16 [10] = test: Anti-melanoma activity against mouse B16 cells xenografted in Kunming mouse model assessed as inhibition of tumor weight at 80 mg/kg, IG measured every two days for 27 days relative to control; assay type: functional; parameters: scale not given: the % may be the effect or the level left; settings: time 27 day
[11] = Toxicity in Kunming mouse assessed as effect on body weight at 40 mg/kg, IG measured after 21 days; assay type: organism-based; settings: in vivo, po, 504 h, time 21 day
[12] = Drug metabolism in mouse plasma assessed as abiraterone Cmax at 20 mg/kg, IG; assay type: ADME, organism-based; settings: in vivo, po
B16 [13] = test: Anti-melanoma activity against mouse B16 cells xenografted in Kunming mouse model assessed as reduction in tumor volume at 40 mg/kg, IG measured after 7 to 27 days; assay type: functional, organism-based; settings: time 7-27 day
B16 [14] = test: Induction of endoplasmic reticulum (ER) stress in mouse B16 cells assessed as decrease in alix expression at 9.70 uM measured after 48 hrs by Western blot analysis; assay type: functional, cell-based; settings: dose 9.7 µM
B16 [15] = test: Downregulation of Bcl-2 expression in mouse B16 cells at 9.70 uM measured after 48 hrs by Western blot analysis; assay type: functional, cell-based; settings: dose 9.7 µM
[16] = Inhibition of cell migration in mouse B16 cells at 9.70 uM measured after 24 hrs by crystal violet staining based analysis relative to control; assay type: functional
[17] = Toxicity in Kunming mouse assessed as increase in survival rate at 60 mg/kg, IG measured after 27 days relative to control; assay type: organism-based; settings: in vivo, po, time 27 day
B16 [18] = test: Anti-melanoma activity against mouse B16 cells xenografted in Kunming mouse model assessed as reduction in tumor volume at 60 to 80 mg/kg, IG measured after 7 to 27 days; assay type: functional, organism-based; settings: dose 60-80 mg/kg, time 7-27 day
B16 [19] = test: Anti-melanoma activity against mouse B16 cells xenografted in Kunming mouse model assessed as increase in bax expression at 40 to 60 mg/kg, IG measured after 27 days by IHC staining based analysis; assay type: functional, organism-based; settings: dose 40-60 mg/kg, time 27.0 day
B16 [20] = test: Anti-melanoma activity against mouse B16 cells xenografted in Kunming mouse model assessed as reduction in tumor volume at 40 to 80 mg/kg, IG measured after 5 days; assay type: functional, organism-based; settings: dose 40-80 mg/kg, time 5.0 day
B16 [21] = test: Anti-melanoma activity against mouse B16 cells xenografted in Kunming mouse model assessed as inhibition of tumor weight at 40 mg/kg, IG measured every two days for 27 days relative to control; assay type: functional; parameters: scale not given: the % may be the effect or the level left; settings: time 27 day
B16 [22] = test: Anti-melanoma activity against mouse B16 cells xenografted in Kunming mouse model assessed as reduction in tumor volume at 60 to 80 mg/kg, IG measured after 11 days relative to control; assay type: functional; parameters: scale not given: the % may be the effect or the level left; settings: dose 60-80 mg/kg, time 11 day
B16 [23] = test: Upregulation of caspase 3 expression in mouse B16 cells at 9.70 uM measured after 48 hrs by Western blot analysis; assay type: functional, cell-based; settings: dose 9.7 µM
B16 [24] = test: Upregulation of […] expression in mouse B16 cells at 9.70 uM measured after 48 hrs by Western blot analysis; assay type: functional, cell-based; settings: dose 9.7 µM
B16 [25] = test: Anti-melanoma activity against mouse B16 cells xenografted in Kunming mouse model assessed as suppression of tumor weight at 60 mg/kg, IG measured every two days for 27 days (reference value: 10.61+/-1.05g); assay type: functional; settings: time 27 day
B16 [26] = test: Induction of endoplasmic reticulum (ER) stress in mouse B16 cells assessed as appearance of damaged ER at 9.70 uM measured after 24 hrs by confocal microscopy based analysis; assay type: functional, cell-based; settings: dose 9.7 µM
[27] = Toxicity in Kunming mouse assessed as effect on body weight at 60 mg/kg, IG measured after 21 days; assay type: organism-based; settings: in vivo, po, 504 h, time 21 day
B16 [28] = test: Induction of apoptosis in mouse B16 cells at 4.85 uM measured after 48 hrs by annexin-V/PI double staining based flow cytometry analysis; assay type: functional, cell-based
B16 [29] = test: Anti-melanoma activity against mouse B16 cells xenografted in Kunming mouse model assessed as inhibition of tumor weight at 60 mg/kg, IG measured every two days for 27 days relative to control; assay type: functional; parameters: scale not given: the % may be the effect or the level left; settings: time 27 day
[30] = Drug metabolism in mouse plasma assessed as abiraterone Tmax at 20 mg/kg, IG; assay type: ADME, organism-based; settings: in vivo, po
[31] = Toxicity in Kunming mouse assessed as increase in survival rate at 80 mg/kg, IG measured after 27 days relative to control; assay type: organism-based; settings: in vivo, po, time 27 day
[32] = Inhibition of cell invasion in mouse B16 cells at 9.70 uM measured after 24 hrs by crystal violet staining based analysis relative to control; assay type: functional
[33] = Antiproliferative activity against human Prostate tumor cell line at 25 uM measured after 48 hrs by MTT assay relative to control; assay type: functional
B16 [34] = test: Upregulation of caspase 8 expression in mouse B16 cells at 9.70 uM measured after 48 hrs by Western blot analysis; assay type: functional, cell-based; settings: dose 9.7 µM
B16 [35] = test: Induction of endoplasmic reticulum (ER) stress in mouse B16 cells assessed as increase in […] expression at 9.70 uM measured after 48 hrs by Western blot analysis; assay type: functional, cell-based; settings: dose 9.7 µM
B16 [36] = test: Anti-melanoma activity against mouse B16 cells xenografted in Kunming mouse model assessed as increase in caspase 8 expression at 40 to 60 mg/kg, IG measured after 27 days by IHC staining based analysis; assay type: functional, organism-based; settings: dose 40-60 mg/kg, time 27.0 day
B16 [37] = test: Anti-melanoma activity against mouse B16 cells xenografted in Kunming mouse model assessed as reduction in tumor volume at 40 mg/kg, IG measured after 19 days; assay type: functional, organism-based; settings: time 19.0 day
B16 [38] = test: Antiproliferative activity against mouse B16 cells measured after 48 hrs by MTT assay; assay type: functional, cell-based; settings: B16, 48 h

CC(C)[C@H](NC(=O)CN)C(=O)O[C@H]1CC[C@@]2(C)C(=CC[C@@H]3[C@@H]2CC[C@]2(C)C(c4cccnc4)=CC[C@@H]32)C1
Activity (B16 [1]): Active | inhibition at 9.7 µM [2]: 66% | Activity (B16 [3]): Active | Activity [4]: Non-Toxic | Activity (B16 [5]): 0.23 g | Activity (B16 [6]): 1.7 g | Activity (B16 [7]): Active | Activity (B16 [8]): Active | Activity (B16 [9]): Active | Activity (B16 [10]): 99.06% | Activity [11]: Toxic | Cmax [12]: 55.8 ng/mL | Activity (B16 [13]): inactive | Activity (B16 [14]): Active | Activity (B16 [15]): Active | inhibition at 9.7 µM [16]: 70% | survival at 648 h [17]: 100% | Activity (B16 [18]): Active | Activity (B16 [19]): Active | Activity (B16 [20]): Active | Activity (B16 [21]): 83.96% | Activity (B16 [22]): 100% | Activity (B16 [23]): Active | Activity (B16 [24]): Active | Activity (B16 [25]): 0.1 g | Activity (B16 [26]): Active | Activity [27]: Non-Toxic | Activity (B16 [28]): Active | Activity (B16 [29]): 98.12% | Tmax [30]: 8 h | survival at 648 h [31]: 100% | inhibition at 9.7 µM [32]: ~65% | Activity [33]: 13.6% | Activity (B16 [34]): Active | Activity (B16 [35]): Active | Activity (B16 [36]): Active | Activity (B16 [37]): Active | pIC50 (B16 [38]): 5.01
